This passage reports IC50 results from patent US12662491B2 (Redona Therapeutics, Inc., priority 2020, dated 2026).

The first test addresses T1, Zcchc11 enzyme (Homo sapiens, UniProt Q5TAX3).
T1 construct: made in house; host or cells: HEK293 cells (Zcchc11); E. coli Rosetta II (LIN28A)
T1 sequence (Q5TAX3 212-1420): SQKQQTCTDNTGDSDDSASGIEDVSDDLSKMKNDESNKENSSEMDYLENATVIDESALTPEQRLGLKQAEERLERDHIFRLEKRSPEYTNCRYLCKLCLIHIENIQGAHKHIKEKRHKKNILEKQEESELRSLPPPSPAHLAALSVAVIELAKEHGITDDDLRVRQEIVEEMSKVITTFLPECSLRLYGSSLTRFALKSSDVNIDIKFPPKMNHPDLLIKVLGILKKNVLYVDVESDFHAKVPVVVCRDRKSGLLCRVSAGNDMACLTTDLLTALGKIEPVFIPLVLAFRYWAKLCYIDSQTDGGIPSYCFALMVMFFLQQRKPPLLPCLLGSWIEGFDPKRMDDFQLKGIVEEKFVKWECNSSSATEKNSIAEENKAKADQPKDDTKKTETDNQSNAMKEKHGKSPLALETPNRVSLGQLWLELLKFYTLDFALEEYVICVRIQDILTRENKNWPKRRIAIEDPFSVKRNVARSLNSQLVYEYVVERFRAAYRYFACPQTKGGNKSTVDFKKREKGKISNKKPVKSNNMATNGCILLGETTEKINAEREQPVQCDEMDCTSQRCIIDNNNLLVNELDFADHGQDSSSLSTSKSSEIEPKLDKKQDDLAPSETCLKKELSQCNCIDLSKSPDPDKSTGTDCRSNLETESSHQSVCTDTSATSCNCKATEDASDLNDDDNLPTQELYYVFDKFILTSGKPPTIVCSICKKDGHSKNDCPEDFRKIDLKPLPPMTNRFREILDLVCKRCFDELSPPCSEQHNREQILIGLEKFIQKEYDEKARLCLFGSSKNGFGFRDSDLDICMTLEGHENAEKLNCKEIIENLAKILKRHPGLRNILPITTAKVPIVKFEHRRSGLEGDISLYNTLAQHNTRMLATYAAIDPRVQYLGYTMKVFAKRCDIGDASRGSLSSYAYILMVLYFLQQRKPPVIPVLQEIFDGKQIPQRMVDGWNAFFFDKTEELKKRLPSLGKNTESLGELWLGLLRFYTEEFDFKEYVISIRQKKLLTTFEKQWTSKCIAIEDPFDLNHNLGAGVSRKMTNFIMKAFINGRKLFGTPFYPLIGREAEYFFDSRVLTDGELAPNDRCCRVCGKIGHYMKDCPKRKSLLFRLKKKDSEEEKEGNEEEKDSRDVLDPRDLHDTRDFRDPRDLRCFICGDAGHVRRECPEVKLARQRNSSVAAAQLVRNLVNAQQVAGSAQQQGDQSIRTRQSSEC
As to the kind of experiment: TUTase assay (Zcchc11 assay, Lin28a-dependent polyuridylation of pre-let-7). Format: biochemical. Conditions: LIN28A 10 nM, Zcchc11 0.2 nM, 5′-fluorescein pre-let-7 miRNA 2 nM, UTP 5 uM, room temperature, 30 minutes pre-incubation; read-out: Potency Lin28a-dep Z11 IC50. In short, it runs like this:
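HEK293-expressed human Zcchc11 (residues 212-1420, 0.2 nM) with 10 nM LIN28A and 2 nM 5′-fluorescein pre-let-7, preincubated 30 min at room temperature, pH 7.3. Started with 5 uM UTP; poly(U) tails quenched by 3′-rhodamine A20 probe, read kinetically. IC50 from early-rate four-parameter fit; no-UTP wells define 0%.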
For the molecule `CN(C)CCOc1cnc(-n2cc(C(=O)O)c(=O)c3cc(F)c(N4CCC[C@@H]4COc4ncccc4Cl)cc32)cn1` [Example 16, (R)-7-(2-(((3-chloropyridin-2-yl)oxy)methyl)pyrrolidin-1-yl)-1-(5-(2-(dimethylamino)ethoxy)pyrazin-2-yl)-6-fluoro-4-oxo-1,4-dihydroquinoline-3-carboxylic acid], the IC50 (commonly the point on the concentration scale where inhibition reaches its midpoint) is not above 1 µM.

Consider `O=C(O)c1cn(-c2cnc(O)cn2)c2cc(N3CCC[C@@H]3COc3ccccn3)c(Cl)cc2c1=O` [Example 33, 6-chloro-1-(5-hydroxypyrazin-2-yl)-4-oxo-7-[(2R)-2-[(pyridin-2-yloxy)methyl]pyrrolidin-1-yl]-1,4-dihydroquinoline-3-carboxylic acid], for which the IC50 is not above 1 µM.

As to `COc1ccc(Cl)c(OC[C@H]2CC3CC3N2c2cc3c(cc2F)c(=O)c(C(=O)O)cn3-c2ccc(N3CC(N(C)C)C3)nc2)n1` (stereo partly drawn) [Example 72, 7-[(3R)-3-{[(3-chloro-6-methoxypyridin-2-yl)oxy]methyl}-2-azabicyclo[3.1.0]hexan-2-yl]-1-{6-[3-(dimethylamino)azetidin-1-yl]pyridin-3-yl}-6-fluoro-4-oxo-1,4-dihydroquinoline-3-carboxylic acid], the IC50 was not above 1 µM.

Still in this test, the particulars now being: Lin28a-dependent Zcchc11 (Z11) TUTase activity; read-out: Potency Lin28a-dep Z11 IC50.
Regarding `CN(C)C1CN(c2ccc(-n3cc(C(=O)O)c(=O)c4cc(Cl)c(N5CCC[C@@H]5COc5nccn6ccnc56)cc43)cn2)C1` [Compound 172, (R)-6-chloro-1-(6-(3-(dimethyl-amino)azetidin-1-yl)pyridin-3-yl)-7-(2-((imidazo [1,2-a]pyrazin-8-yloxy)methyl)pyrrolidin-1-yl)-4-oxo-1,4-dihydro-quinoline-3-carboxylic acid], the IC50 was not above 1 µM.

In the case of `CN(C)C1CN(c2ccc(-n3cc(C(=O)O)c(=O)c4cc(Cl)c(N5CCC[C@@]5(C)COc5ncccc5Cl)nc43)cn2)C1` (racemic) [Compound 186, rac-(R)-6-chloro-7-(2-(((3-chloropyridin-2-yl)oxy)methyl)-2-methyl-pyrrolidin-1-yl)-1-(6-(3-(dimethyl-amino)azetidin-1-yl)pyridin-3-yl)-4-oxo-1,4-dihydro-1,8-naphthyridine-3-carboxylic acid], the IC50 is not above 1 µM.

For the molecule `Cn1cc(-n2cc(C(=O)O)c(=O)c3cc(F)c(N4CCC[C@@H]4COc4ncccc4F)cc32)cn1` (racemic) [Compound 290, rac-(R)-6-fluoro-7-(2-(((3-fluoropyridin-2-yl)oxy)methyl)pyrrolidin-1-yl)-1-(1-methyl-1H-pyrazol-4-yl)-4-oxo-1,4-dihydro-quinoline-3-carboxylic acid], the IC50 was not above 1 µM.

Turning to `O=C(O)c1cn(C2CC2)c2c(F)c(N3CCC[C@@H]3COc3ccccn3)c(F)cc2c1=O` [Compound 79, (R)-1-cyclopropyl-6,8-difluoro-4-oxo-7-(2-((pyridin-2-yloxy)methyl)pyrrolidin-1-yl)-1,4-dihydro-quinoline-3-carboxylic acid], the IC50 is 1 to 10 µM.

As to `O=C(O)c1cn(C2CC2)c2cc(N3CCC[C@H]3COc3ccccn3)c(F)cc2c1=O` [Compound 81, (S)-1-cyclopropyl-6-fluoro-4-oxo-7-(2-((pyridin-2-yloxy)methyl)pyrrolidin-1-yl)-1,4-dihydro-quinoline-3-carboxylic acid], the IC50 lay in the range of 10 to 50 µM.

As for `O=C(O)c1cn(-c2cnc(OCc3ccccc3)cn2)c2cc(N3CCC[C@@H]3COc3ncccc3Cl)c(Cl)cc2c1=O` (racemic) [Compound 263, rac-(R)-1-(5-(benzyloxy)pyrazin-2-yl)-6-chloro-7-(2-(((3-chloropyridin-2-yl)oxy)methyl)pyrrolidin-1-yl)-4-oxo-1,4-dihydro-quinoline-3-carboxylic acid], the IC50 is not above 1 µM.

For the molecule `Cc1ccnc(OC[C@H]2CCCN2c2cc3c(cc2F)c(=O)c(C(=O)O)cn3-c2ccccc2)c1` [Compound 94, (R)-6-fluoro-7-(2-(((4-methyl-pyridin-2-yl)oxy)methyl)pyrrolidin-1-yl)-4-oxo-1-phenyl-1,4-dihydro-quinoline-3-carboxylic acid], the IC50 was not above 1 µM.

With `Cc1ccc(F)c(OC[C@H]2C[C@H]3C[C@H]3N2c2cc3c(cc2Cl)c(=O)c(C(=O)O)cn3-c2ccc(N(C)C)nc2)n1` [Compound 343, 6-Chloro-1-[6-(dimethyl-amino)pyridin-3-yl]-7-[(1R,3R,5R)-3-{[(3-fluoro-6-methylpyridin-2-yl)oxy]methyl}-2-azabicyclo [3.1.0]hexan-2-yl]-4-oxoquinoline-3-carboxylic acid], the IC50 was not above 1 µM.

The test is the same for the next values; noted with them: Lin28a-dependent Zcchc11 (Z11) TUTase assay; read-out: Potency Lin28a-dep Z11 IC50.
For `O=C(O)c1cn(-c2cc3cc[nH]c3cc2F)c2cc(N3CCC[C@@H]3COc3ncccc3Cl)c(Cl)cc2c1=O` [Example 505, (R)-6-chloro-7-(2-(((3-chloropyridin-2-yl)oxy)methyl)pyrrolidin-1-yl)-1-(6-fluoro-1H-indol-5-yl)-4-oxo-1,4-dihydroquinoline-3-carboxylic acid], the IC50 was not above 1 µM.

Take `COCCNc1ccc(-n2cc(C(=O)O)c(=O)c3cc(C#N)c(N4CCC[C@@H]4COc4ncccc4Cl)cc32)cn1` [Example 539, (R)-7-(2-(((3-chloropyridin-2-yl)oxy)methyl)pyrrolidin-1-yl)-6-cyano-1-(6-((2-methoxyethyl)amino)pyridin-3-yl)-4-oxo-1,4-dihydroquinoline-3-carboxylic acid]: the IC50 is not above 1 µM.

On to `CN(C)C1CN(c2ccc(-n3cc(C(=O)O)c(=O)c4cc(Cl)c(N5CCC[C@@]5(C)COc5ncccc5Cl)cc43)cn2)C1` [Example 609, (S)-6-chloro-7-(2-(((3-chloropyridin-2-yl)oxy)methyl)-2-methylpyrrolidin-1-yl)-1-(6-(3-(dimethylamino)azetidin-1-yl)pyridin-3-yl)-4-oxo-1,4-dihydroquinoline-3-carboxylic acid], for which the IC50 was not above 1 µM.

Turning to `COc1cnc(OC[C@H]2C[C@H]3C[C@H]3N2c2cc3c(cc2Cl)c(=O)c(C(=O)O)cn3-c2ccc(N3CC(N(C)C)C3)nc2)c(Cl)c1` [Example 662, 6-chloro-7-((1R,3R,5R)-3-(((3-chloro-5-methoxypyridin-2-yl)oxy)methyl)-2-azabicyclo[3.1.0]hexan-2-yl)-1-(6-(3-(dimethylamino)azetidin-1-yl)pyridin-3-yl)-4-oxo-1,4-dihydroquinoline-3-carboxylic acid], the IC50 is not above 1 µM.

In the case of `O=C(O)c1cn(-c2ccccc2CO)c2cc(N3CCC[C@@H]3COc3ccccn3)c(F)cc2c1=O` [Example 403, (R)-6-fluoro-1-(2-(hydroxymethyl)phenyl)-4-oxo-7-(2-((pyridin-2-yloxy)methyl)pyrrolidin-1-yl)-1,4-dihydroquinoline-3-carboxylic acid], the IC50 lay within 1 to 10 µM.

As to `O=C(O)c1cn(C2COC2)c2cc(N3CCC[C@@H]3COc3ccccn3)c(F)cc2c1=O` [Example 451, (R)-6-fluoro-1-(oxetan-3-yl)-4-oxo-7-(2-((pyridin-2-yloxy)methyl)pyrrolidin-1-yl)-1,4-dihydroquinoline-3-carboxylic acid], the IC50 is 1 to 10 µM.

With `O=C(O)c1cn(-c2ccc(OCCO)cc2)c2cc(N3CCC[C@@H]3COc3ccccn3)c(F)cc2c1=O` [Example 405, (R)-6-fluoro-1-(4-(2-hydroxyethoxy)phenyl)-4-oxo-7-(2-((pyridin-2-yloxy)methyl)pyrrolidin-1-yl)-1,4-dihydroquinoline-3-carboxylic acid], the IC50 is not above 1 µM.

Turning to `CN(C)c1ccc(Cl)c(OC[C@H]2CC3CC3N2c2cc3c(cc2Cl)c(=O)c(C(=O)O)cn3-c2ccc(N3CC(N(C)C)C3)nc2)n1` (stereo partly drawn) [Example 665, 6-chloro-7-((3R)-3-(((3-chloro-6-(dimethylamino)pyridin-2-yl)oxy)methyl)-2-azabicyclo[3.1.0]hexan-2-yl)-1-(6-(3-(dimethylamino)azetidin-1-yl)pyridin-3-yl)-4-oxo-1,4-dihydroquinoline-3-carboxylic acid], the IC50 was not above 1 µM.
